Where two headings read alike, the source gives them in different places.

The data set is described as follows: In vitro transdermal delivery of the drug from the diffusion matrix through human cadaver skin epidermis into Ringer solution. The source says: Es wurde von uns eine Diffusionsmatrix "in vitro" untersucht, die auf der Grundlage der erfindungsgemäßen Zusammensetzung hergestellt wurde.
So wird, beispielsweise, auf eine Adhäsionsschicht einer Diffusionsmatrix mit runder Form und einem Radius von 1 cm (Fläche 3,14 cm²), die auf der Grundlage einer Zusammensetzung hergestellt wird, die 26,7 g Propranolol, 40 g Polyäthylenglykol mit einer Molekularmasse von 400 und 100 g Polyvinylpyrrolidon enthält, ein Probestück aus der Epidermis der Leichenhaut eines Menschen (mit der Außenoberfläche der Epidermis an die Diffusionsmatrix) aufgeklebt. Das Laminat der Diffusionsmatrix mit der Hautepidermis taucht man in die in einem Magnetrührer zu vermischende Ringer-Lösung ein. In den vorgegebenen Zeitabständen nimmt man aus der Lösung Proben ab, in denen man den Gehalt an Propranolol mit Hilfe der Spektrofluorometrie ermittelt, wobei die vorher aufgebauten Eichkurven genutzt werden.

As for `CC(C)NCC(O)COc1cccc2ccccc12` (stereo not drawn) [Propranolol], the “Geschwindigkeit der transdermalen Zuführung aus einer Matrix, die einen Füllstoff enthält” value was found to be 55 µg/cm².h and the “Geschwindigkeit des transdermalen Eintritts des Arzneistoffes aus der Matrix” value is listed as 47 µg/cm².h.
Consider `O=[N+]([O-])OCC(CO[N+](=O)[O-])O[N+](=O)[O-]` [Nitroglyzerin], for which the “Geschwindigkeit des transdermalen Eintritts des Arzneistoffes aus der Matrix” value (drug contained in the named matrix, through cadaver skin) came to 39 µg/cm².h.

These data come from EP0340307A1, “COMPOSITION OF POLYMER DIFFUSION MATRIX FOR TRANSDERMALLY INTRODUCING PHARMACEUTICAL SUBSTANCES” (priority 1987, dated 1989).
